How the values were obtained:
Type in all cases: in vivo
Septoria nodorum = assay: Test D: wheat glume blotch, preventive spray on wheat seedlings, visual disease rating; settings: for pest or weed control at 200 ppm: Parastagonospora nodorum, 216 h
Procedure, shortened: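 Compounds in 3% acetone, then 50/50 acetone–water with 250 ppm Trem 014, sprayed to run-off at 200 ppm (500 g/ha; some at 40 ppm) one day before spore inoculation. Held 48 h saturated at 20 °C, then 7 days at 20 °C; visual rating as % disease control vs untreated (0–100).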

Plasmopara viticola = assay: Test H: grape downy mildew, spray after inoculation of grape seedlings, visual disease rating; settings: for pest or weed control at 200 ppm: Plasmopara viticola, 192 h
Description: (§1) General protocol for preparing test suspensions for Tests A-H: The test compounds were first dissolved in acetone in an amount equal to 3% of the final volume and then suspended at the desired concentration (in ppm) in acetone and purified water (50/50 mix) containing 250 ppm of the surfactant Trem® 014 (polyhydric alcohol esters). The resulting test suspensions were then used in tests A-H. Spraying a 200 ppm test suspension to the point of run-off on the test plants was the equivalent of a rate of 500 g/ha.
Grape seedlings were inoculated with a spore suspension of Plasmopara viticola (the causal agent of grape downy mildew) and incubated in a saturated atmosphere at 20° C. for 24 h. After a short drying period, the test suspension was sprayed to the point of run-off on the grape seedlings, and then moved to a growth chamber at 20° C. for 6 days, after which time the test units were placed back into a saturated atmosphere at 20° C. for 24 h. Upon removal, disease ratings were visually made.
(§2) Results for Tests A-H are given in Table A. In the table, a rating of 100 indicates 100% disease control and a rating of 0 indicates no disease control (relative to the controls). A dash (-) indicates no test results. All results are for compounds tested at 200 ppm except where the compound number is followed by “*” which indicates the compound was tested at 40 ppm.

[1] = system: Erysiphe graminis f. sp. tritici; assay: Test A: wheat powdery mildew, preventive spray on wheat seedlings, visual disease rating; settings: for pest or weed control at 200 ppm: Blumeria graminis, 192 h
Procedure, shortened: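 Acetone/water (50/50) suspension with 250 ppm surfactant sprayed to run-off on wheat seedlings (200 ppm ≈ 500 g/ha); inoculated next day with E. graminis spore dust. Incubated 8 days at 20° C, then visually rated 0–100% disease control versus untreated controls; tests at 200 ppm or 40 ppm.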

Botrytis cinerea = assay: Test F: tomato botrytis, preventive spray on tomato seedlings, visual disease rating; settings: for pest or weed control at 200 ppm: Botrytis cinerea, 120 h
Procedure, shortened: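 Tomato seedlings sprayed to run-off with compound suspended in acetone/water (50/50) plus 250 ppm Trem 014, at 200 ppm (≈500 g/ha) or 40 ppm where marked. Inoculated next day with B. cinerea spores, 48 h saturated atmosphere at 20 °C, then 3 days at 24 °C. Visual rating, 0–100% disease control relative to controls.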

Septoria tritici = assay: Test C: wheat leaf blotch, preventive spray on wheat seedlings, visual disease rating; settings: for pest or weed control at 200 ppm: Zymoseptoria tritici, 504 h
Procedure, shortened: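 Wheat seedlings sprayed to run-off with compound in acetone/water plus 250 ppm surfactant at 200 ppm (≈500 g/ha), or 40 ppm where marked; inoculated with Septoria tritici next day. Held saturated at 20 °C for 48 h, then 19 days at 20 °C; disease control rated visually 0–100 versus controls.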

Alternaria solani = assay: Test E: tomato early blight, preventive spray on tomato seedlings, visual disease rating; settings: for pest or weed control at 200 ppm: Alternaria solani, 168 h
Procedure, shortened: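 Seedlings sprayed to run-off with compound in acetone/water plus 250 ppm Trem 014 (200 ppm ≈ 500 g/ha), inoculated with spores next day. Held 48 h saturated at 27 °C, then 5 days at 20 °C; visual rating 0–100% disease control relative to controls.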

[2] = system: Puccinia recondite f. sp. tritici; assay: Test B: wheat leaf rust, preventive spray on wheat seedlings, visual disease rating; settings: for pest or weed control at 200 ppm: 192 h
Procedure, shortened: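 Wheat seedlings were sprayed to run-off with compound suspension, 200 ppm (≈500 g/ha) or 40 ppm where marked, containing surfactant in acetone/water. Inoculation with Puccinia recondita spores followed one day later, then 24 h in saturated humidity at 20° C and 7 days at 20° C. Disease control was rated visually, 0–100% versus controls.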

Rhizoctonia oryzae = assay: Test G: turf brown patch, preventive spray on creeping bent grass seedlings, visual disease rating; settings: Waitea circinata, in Agrostis stolonifera, 120 h, 200 ppm, 100 = 100% disease control, 0 = no control
Description: as §1
The test suspension was sprayed to the point of run-off on creeping bent grass seedlings. The following day the seedlings were inoculated with a spore suspension of Rhizoctonia oryzae (the causal agent of turf brown patch) and incubated in a saturated atmosphere at 27° C. for 48 h, and then moved to a growth chamber at 27° C. for 3 days, after which time disease ratings were visually made.
as §2

[3] = 200 ppm, 100 = 100% disease control, 0 = no control
[4] = 40 ppm (compound number followed by *)

Row | SMILES | Test D rating (% disease control) (Septoria nodorum; [3]) [%] | Test H rating (% disease control) (Plasmopara viticola; [3]) [%] | Test A rating (% disease control) [1, 3] [%] | Test F rating (% disease control) (Botrytis cinerea; [3]) [%] | Test E rating (% disease control) (Alternaria solani; [3]) [%] | Test B rating (% disease control) [2, 3] [%] | Test C rating (% disease control) (Septoria tritici; [3]) [%] | also measured
1 | COc1cc(OC)cc(-c2c(C(C)=O)cnc(C)c2-c2ccc(F)cc2)c1 [Compound 12, 1-[4-(3,5-dimethoxyphenyl)-5-(4-fluorophenyl)-6-methyl-3-pyridinyl]ethanone] |  |  |  |  |  |  |  | pest or weed control at 200 ppm (Septoria nodorum; [3]): 0%; pest or weed control at 200 ppm (Plasmopara viticola; [3]): 0%; pest or weed control at 200 ppm [1, 3]: 95%; pest or weed control at 200 ppm (Botrytis cinerea; [3]): 99%; pest or weed control at 200 ppm (Septoria tritici; [3]): 92%; pest or weed control at 200 ppm (Alternaria solani; [3]): 90%; pest or weed control at 200 ppm [2, 3]: 93%
2 | COc1cc(OC)cc(-c2c(C(C)=O)cnc(C)c2-c2ccccc2)c1 [Compound 2] | 0 | 0 | 95 | 99 | 0 | 0 |  | 
3 | COc1cc(OC)cc(-c2c(-c3ccc(F)cc3)c(C)nc(Cl)c2C2CCCC2)c1 [Compound 49, 2-chloro-3-cyclopentyl-4-(3,5-dimethoxyphenyl)-5-(4-fluorophenyl)-6-methylpyridine] |  |  |  |  |  |  |  | pest or weed control at 200 ppm (Septoria nodorum; [3]): 0%; pest or weed control at 200 ppm [1, 3]: 0%; pest or weed control at 200 ppm (Botrytis cinerea; [3]): 0%; pest or weed control at 200 ppm (Alternaria solani; [3]): 16%; pest or weed control at 200 ppm (Rhizoctonia oryzae): 0%; pest or weed control at 200 ppm [2, 3]: 0%
4 | COc1cc(OC)cc(-c2c(C3CCCC3)cnc(C)c2-c2ccc(F)cc2)c1 [Compound 50, 5-cyclopentyl-4-(3,5-dimethoxyphenyl)-3-(4-fluorophenyl)-2-methylpyridine] |  |  |  |  |  |  |  | pest or weed control at 200 ppm (Septoria nodorum; [3]): 60%; pest or weed control at 200 ppm [1, 3]: 92%; pest or weed control at 200 ppm (Botrytis cinerea; [3]): 97%; pest or weed control at 200 ppm (Alternaria solani; [3]): 100%; pest or weed control at 200 ppm (Rhizoctonia oryzae): 98%; pest or weed control at 200 ppm [2, 3]: 99%
5 | COc1cc(OC)cc(-c2c(-c3ccccc3F)c[n+]([O-])c(C)c2-c2ccccc2)c1 [Compound 33] |  | 0 | 79 | 95 | 100 |  |  | 
6 | CCOC(=O)c1cnc(C)c(-c2ccccc2)c1-c1cc(OC)cc(OC)c1Cl [Compound 25] |  |  |  |  |  |  |  | Test D rating (% disease control) (Septoria nodorum; [4]): 0%; Test H rating (% disease control) (Plasmopara viticola; [4]): 0%; Test A rating (% disease control) [1, 4]: 0%; Test F rating (% disease control) (Botrytis cinerea; [4]): 84%; Test C rating (% disease control) (Septoria tritici; [4]): 0%; Test E rating (% disease control) (Alternaria solani; [4]): 0%; Test B rating (% disease control) [2, 4]: 0%
7 | CCC(C)(O)c1cnc(C)c(-c2ccc(F)cc2)c1-c1cc(OC)cc(OC)c1 (stereo not drawn) [Compound 14] | 0 | 0 | 97 | 99 | 99 | 98 | 99 | 
8 | CCc1ncc(C(C)(C)O)c(-c2cc(OC)cc(OC)c2)c1-c1ccccc1 [Compound 28] | 0 | 0 | 96 | 99 | 93 | 28 | 100 | 
9 | COc1cc(OC)cc(-c2c(C(C)C)cnc(C)c2-c2ccccc2F)c1 [Compound 21] | 0 | 40 | 100 | 98 | 97 | 99 | 100 | 
10 | CCOC(=O)c1cnc(C)c(-c2ccc(F)cc2)c1-c1cc(OC)cc(OC)c1 [Compound 11, ethyl 4-(3,5-dimethoxyphenyl)-5-(4-fluorophenyl)-6-methyl-3-pyridinecarboxylate] |  |  |  |  |  |  |  | pest or weed control at 200 ppm (Septoria nodorum; [3]): 0%; pest or weed control at 200 ppm (Plasmopara viticola; [3]): 0%; pest or weed control at 200 ppm [1, 3]: 98%; pest or weed control at 200 ppm (Botrytis cinerea; [3]): 0%; pest or weed control at 200 ppm (Septoria tritici; [3]): 30%; pest or weed control at 200 ppm (Alternaria solani; [3]): 0%; pest or weed control at 200 ppm [2, 3]: 0%
11 | CCOC(=O)c1c[n+]([O-])c(C)c(-c2ccccc2)c1-c1cc(OC)cc(OC)c1 [Compound 51] | 0 | 0 | 76 | 0 | 0 | 0 |  | 
12 | CCOC(=O)c1cnc(C)c(-c2ccccc2)c1-c1cc(OC)ccc1F [Compound 15] | 0 | 0 | 82 | 96 | 0 | 0 | 7 | 
13 | CCOC(=O)c1cnc(C)c(-c2ccccc2)c1-c1cc(OC)cc(OC)c1 [Compound 1] | 0 | 0 | 96 | 99 | 0 | 28 |  | 
14 | CCOC(=O)c1cnc(C)c(-c2ccccc2)c1-c1cc(OC)cc(OC)c1F [Compound 26] | 0 | 0 | 94 | 98 | 0 | 68 | 86 | 
15 | CCc1ncc(C(C)C)c(-c2cc(OC)cc(OC)c2)c1-c1ccccc1 [Compound 30] | 0 | 0 | 98 | 99 | 0 | 80 | 100 | 
16 | COc1cc(OC)cc(-c2c(C(C)(C)O)cnc(C)c2-c2ccc(F)cc2)c1 [Compound 13, 4-(3,5-dimethoxyphenyl)-5-(4-fluorophenyl)-α,α,6-trimethyl-3-pyridinemethanol] |  |  |  |  |  |  |  | pest or weed control at 200 ppm (Septoria nodorum; [3]): 0%; pest or weed control at 200 ppm (Plasmopara viticola; [3]): 0%; pest or weed control at 200 ppm [1, 3]: 96%; pest or weed control at 200 ppm (Botrytis cinerea; [3]): 99%; pest or weed control at 200 ppm (Septoria tritici; [3]): 100%; pest or weed control at 200 ppm (Alternaria solani; [3]): 100%; pest or weed control at 200 ppm [2, 3]: 99%
17 | COc1cc(OC)cc(-c2c(C)cnc(C)c2-c2c(F)cc(F)cc2F)c1 [Compound 129] |  |  |  |  |  |  |  | Test D rating (% disease control) (Septoria nodorum; [4]): 60%; Test A rating (% disease control) [1, 4]: 99%; Test F rating (% disease control) (Botrytis cinerea; [4]): 99%; Test C rating (% disease control) (Septoria tritici; [4]): 99%; Test E rating (% disease control) (Alternaria solani; [4]): 66%; Test B rating (% disease control) [2, 4]: 100%
18 | CCc1ncc(C(C)=O)c(-c2cc(OC)cc(OC)c2)c1-c1ccccc1 [Compound 27] | 0 | 0 | 98 | 99 | 92 | 80 | 100 | 

— patent US20110092544A1, “FUNGICIDAL PYRIDINES” (E.I. DU PONT DE nemours and company, priority 2008, published 2011)
